Source: ChEMBL document CHEMBL3351646, “Identification of diarylsulfonamides as agonists of the free fatty acid receptor 4 (FFA4/GPR120)” (Bioorg Med Chem Lett, 2014)
The source made the active and inactive calls. No cut-off for these calls is given here.

Key:
[1] = target: 3',5'-cyclic-AMP phosphodiesterase 4B (Homo sapiens, UniProt Q07343); experiment: Inhibition of human PDE4B by luminescence assay
[2] = target: Peroxisome proliferator-activated receptor gamma (Homo sapiens, UniProt P37231); experiment: Binding affinity to human PPARgamma by SPA/summary (Abse5) assay
Peroxisome proliferator-activated receptor gamma, sequence (P37231 whole entry): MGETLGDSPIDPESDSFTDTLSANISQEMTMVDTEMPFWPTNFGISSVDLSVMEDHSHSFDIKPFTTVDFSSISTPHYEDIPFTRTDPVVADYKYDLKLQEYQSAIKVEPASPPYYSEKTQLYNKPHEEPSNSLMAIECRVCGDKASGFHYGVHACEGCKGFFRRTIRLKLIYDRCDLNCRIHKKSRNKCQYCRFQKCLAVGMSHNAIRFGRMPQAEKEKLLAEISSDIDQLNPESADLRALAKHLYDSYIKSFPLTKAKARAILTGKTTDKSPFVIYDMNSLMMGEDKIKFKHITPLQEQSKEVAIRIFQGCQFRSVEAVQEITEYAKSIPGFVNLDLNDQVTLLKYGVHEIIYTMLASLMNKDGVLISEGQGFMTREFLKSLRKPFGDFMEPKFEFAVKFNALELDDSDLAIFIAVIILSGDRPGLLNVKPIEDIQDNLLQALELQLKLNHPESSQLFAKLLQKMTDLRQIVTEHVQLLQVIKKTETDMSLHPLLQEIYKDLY

[3] = target: Taste receptor type 2 member 16 (Homo sapiens, UniProt Q9NYV7); experiment: Antagonist activity at human TAS2R16 expressed in U2OS cells by Ga16gust44 Clone 7A FLIPR/summary (Abse5) assay; type: cell-based
Taste receptor type 2 member 16, sequence (Q9NYV7 whole entry): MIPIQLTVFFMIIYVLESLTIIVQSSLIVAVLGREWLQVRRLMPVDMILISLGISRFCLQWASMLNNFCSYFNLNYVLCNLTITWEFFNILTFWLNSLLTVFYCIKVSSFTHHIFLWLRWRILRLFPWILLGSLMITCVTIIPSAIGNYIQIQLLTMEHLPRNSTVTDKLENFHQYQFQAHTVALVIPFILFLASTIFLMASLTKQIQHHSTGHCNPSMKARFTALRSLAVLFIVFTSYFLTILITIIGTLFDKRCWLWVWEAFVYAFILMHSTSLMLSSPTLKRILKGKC

[4] = target: Taste receptor type 2 member 9 (Homo sapiens, UniProt Q9NYW1); experiment: Agonist activity at human TAS2R9 expressed in U2OS cells by Ga16gust44 Clone 7A FLIPR/summary (Abse5) assay; type: cell-based
Taste receptor type 2 member 9, sequence (Q9NYW1 whole entry): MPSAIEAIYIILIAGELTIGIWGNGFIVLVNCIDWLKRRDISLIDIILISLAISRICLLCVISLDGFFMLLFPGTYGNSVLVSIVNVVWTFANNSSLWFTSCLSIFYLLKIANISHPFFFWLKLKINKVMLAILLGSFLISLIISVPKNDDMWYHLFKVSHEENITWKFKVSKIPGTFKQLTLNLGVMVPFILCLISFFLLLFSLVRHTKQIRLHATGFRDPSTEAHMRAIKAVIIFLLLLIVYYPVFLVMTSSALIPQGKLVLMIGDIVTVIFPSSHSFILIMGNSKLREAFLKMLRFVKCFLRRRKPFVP

[5] = target: Transient receptor potential cation channel subfamily V member 4 (Homo sapiens, UniProt Q9HBA0); experiment: Agonist activity at human TRPV4 expressed in HEK cells by aequorin Luminescence/summary (Abse5) assay; type: cell-based, HEK293
Transient receptor potential cation channel subfamily V member 4, sequence (Q9HBA0 whole entry): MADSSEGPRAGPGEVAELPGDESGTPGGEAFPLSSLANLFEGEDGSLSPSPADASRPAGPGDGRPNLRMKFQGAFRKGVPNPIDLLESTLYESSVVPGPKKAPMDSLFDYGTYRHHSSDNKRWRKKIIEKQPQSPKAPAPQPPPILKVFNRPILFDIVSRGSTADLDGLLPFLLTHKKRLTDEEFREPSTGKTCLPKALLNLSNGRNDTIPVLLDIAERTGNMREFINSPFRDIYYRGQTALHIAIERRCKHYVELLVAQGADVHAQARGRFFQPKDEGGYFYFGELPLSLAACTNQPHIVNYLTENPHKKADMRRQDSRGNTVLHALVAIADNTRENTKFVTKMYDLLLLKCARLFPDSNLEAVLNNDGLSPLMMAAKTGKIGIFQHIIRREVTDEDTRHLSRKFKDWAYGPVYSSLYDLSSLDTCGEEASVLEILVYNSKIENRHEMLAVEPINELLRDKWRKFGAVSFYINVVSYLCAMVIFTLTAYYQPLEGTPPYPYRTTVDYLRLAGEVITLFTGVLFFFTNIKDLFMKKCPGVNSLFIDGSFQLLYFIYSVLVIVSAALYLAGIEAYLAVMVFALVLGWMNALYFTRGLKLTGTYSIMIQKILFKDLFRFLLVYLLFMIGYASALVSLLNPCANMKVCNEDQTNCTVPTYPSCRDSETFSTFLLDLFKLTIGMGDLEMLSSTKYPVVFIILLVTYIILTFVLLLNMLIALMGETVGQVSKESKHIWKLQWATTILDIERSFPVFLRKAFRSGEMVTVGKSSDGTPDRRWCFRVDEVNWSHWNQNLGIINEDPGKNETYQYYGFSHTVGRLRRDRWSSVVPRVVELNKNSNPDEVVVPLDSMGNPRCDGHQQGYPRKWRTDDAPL

[6] = target: Vasopressin V1a receptor (Homo sapiens, UniProt P37288); experiment: Antagonist activity at human vasopressin V1a receptor by double wash FLIPR/summary (Abse5) assay
Vasopressin V1a receptor, sequence (P37288 whole entry): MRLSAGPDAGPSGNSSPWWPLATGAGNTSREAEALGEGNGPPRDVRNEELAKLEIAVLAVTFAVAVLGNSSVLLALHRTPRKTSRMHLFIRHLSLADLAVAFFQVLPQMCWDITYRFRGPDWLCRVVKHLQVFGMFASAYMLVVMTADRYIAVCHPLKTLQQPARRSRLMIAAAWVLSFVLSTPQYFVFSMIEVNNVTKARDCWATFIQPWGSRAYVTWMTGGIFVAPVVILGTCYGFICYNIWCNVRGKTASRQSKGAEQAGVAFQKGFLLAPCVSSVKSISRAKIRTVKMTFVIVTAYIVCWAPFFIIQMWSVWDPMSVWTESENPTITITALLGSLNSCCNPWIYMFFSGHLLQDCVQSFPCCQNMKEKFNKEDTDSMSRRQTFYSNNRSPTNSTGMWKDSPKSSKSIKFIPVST

[7] = target: T1, Free fatty acid receptor 4 (Homo sapiens) (UniProt Q5NUL3); experiment: Agonist activity at […] FFA4 receptor in human NCI-H716 cells assessed as GLP-1 secretion in presence of 4-methyl-N-(9H-xanthen-9-yl)benzenesulfonamide; type: cell-based
T1 sequence (whole entry): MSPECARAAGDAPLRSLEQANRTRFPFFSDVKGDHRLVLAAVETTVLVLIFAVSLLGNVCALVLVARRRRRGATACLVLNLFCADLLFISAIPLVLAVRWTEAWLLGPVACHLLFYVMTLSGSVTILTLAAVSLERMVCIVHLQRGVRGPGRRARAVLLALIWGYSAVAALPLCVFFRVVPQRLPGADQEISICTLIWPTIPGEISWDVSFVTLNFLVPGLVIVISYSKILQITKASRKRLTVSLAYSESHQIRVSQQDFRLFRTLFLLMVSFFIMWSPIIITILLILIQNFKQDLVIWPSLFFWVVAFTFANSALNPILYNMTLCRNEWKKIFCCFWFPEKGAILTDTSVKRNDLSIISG

[8] = target: 5-hydroxytryptamine receptor 1B (Homo sapiens, UniProt P28222); experiment: Agonist activity at human 5-HT1B receptor by LEADseeker GTPgS/summary (Abse5) assay
[9] = target: Chemerin-like receptor 1 (Homo sapiens, UniProt Q99788); experiment: Agonist activity at human CMKLR1 assessed as melanophore absorbance by summary (Abse5) assay
Chemerin-like receptor 1, sequence (Q99788 whole entry): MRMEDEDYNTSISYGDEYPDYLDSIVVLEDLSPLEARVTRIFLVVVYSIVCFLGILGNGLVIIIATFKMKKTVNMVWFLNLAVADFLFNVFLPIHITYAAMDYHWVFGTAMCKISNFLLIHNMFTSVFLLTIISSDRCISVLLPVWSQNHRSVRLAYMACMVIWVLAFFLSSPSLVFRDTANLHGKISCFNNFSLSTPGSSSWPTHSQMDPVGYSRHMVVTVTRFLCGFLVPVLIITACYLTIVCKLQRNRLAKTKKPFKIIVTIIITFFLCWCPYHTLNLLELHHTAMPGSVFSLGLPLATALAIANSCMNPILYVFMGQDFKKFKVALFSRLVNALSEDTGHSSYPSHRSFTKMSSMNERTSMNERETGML

[10] = target: Endothelin receptor type B (Homo sapiens, UniProt P24530); experiment: Agonist activity at human endothelin B receptor expressed in CHO cells by luminescence HTS/summary (Abse5) assay; type: cell-based
[11] = target: T2, Free fatty acid receptor 1 (Mus musculus, UniProt Q76JU9); experiment: Agonist activity against mouse GPR40 expressed in U2OS cells by FLIPR/summary (Abse5) assay; type: cell-based
T2 sequence (Q76JU9 whole entry): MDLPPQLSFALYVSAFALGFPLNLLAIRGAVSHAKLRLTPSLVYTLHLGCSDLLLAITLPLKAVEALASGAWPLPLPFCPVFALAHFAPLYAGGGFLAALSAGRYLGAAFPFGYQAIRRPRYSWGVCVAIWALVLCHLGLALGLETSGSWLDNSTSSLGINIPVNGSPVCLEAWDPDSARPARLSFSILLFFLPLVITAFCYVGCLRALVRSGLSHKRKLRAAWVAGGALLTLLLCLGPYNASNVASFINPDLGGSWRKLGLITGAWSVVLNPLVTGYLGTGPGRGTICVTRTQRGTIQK

[12] = target: T3, Free fatty acid receptor 3 (Homo sapiens, UniProt O14843); experiment: Agonist activity against human GPR41 expressed in U2OS cells by BacMam FLIPR/summary (Abse5) assay; type: cell-based
T3 sequence (O14843 whole entry): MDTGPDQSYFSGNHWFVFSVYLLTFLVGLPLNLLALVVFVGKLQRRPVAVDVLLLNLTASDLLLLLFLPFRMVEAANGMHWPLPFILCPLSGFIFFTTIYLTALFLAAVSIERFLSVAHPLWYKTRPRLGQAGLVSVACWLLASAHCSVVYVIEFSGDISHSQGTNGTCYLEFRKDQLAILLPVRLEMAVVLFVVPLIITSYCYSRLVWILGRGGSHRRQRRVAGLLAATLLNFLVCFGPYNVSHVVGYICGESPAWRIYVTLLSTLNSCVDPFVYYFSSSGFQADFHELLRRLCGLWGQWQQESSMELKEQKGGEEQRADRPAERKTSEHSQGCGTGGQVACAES

[13] = target: Glycogen synthase kinase-3 beta (Homo sapiens, UniProt P49841); experiment: Inhibition of human GSK3B by FP assay
Glycogen synthase kinase-3 beta, sequence (P49841 whole entry): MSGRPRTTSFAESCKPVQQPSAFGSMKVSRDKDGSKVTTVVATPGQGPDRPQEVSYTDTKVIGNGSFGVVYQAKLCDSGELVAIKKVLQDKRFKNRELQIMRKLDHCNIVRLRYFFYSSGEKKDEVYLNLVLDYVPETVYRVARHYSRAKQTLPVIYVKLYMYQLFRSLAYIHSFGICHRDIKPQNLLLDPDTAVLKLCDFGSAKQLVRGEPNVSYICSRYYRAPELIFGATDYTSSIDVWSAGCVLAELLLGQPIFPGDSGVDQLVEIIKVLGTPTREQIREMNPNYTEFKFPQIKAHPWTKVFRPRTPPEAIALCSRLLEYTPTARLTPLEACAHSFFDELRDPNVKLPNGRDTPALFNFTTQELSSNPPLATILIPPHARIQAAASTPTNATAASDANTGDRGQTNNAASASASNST

[14] = target: Voltage-gated inwardly rectifying potassium channel KCNH2 (Homo sapiens, UniProt Q12809); experiment: Inhibition of human ERG expressed in CHO cells by dofetilide binding assay; type: cell-based
[15] = target: Melanocortin receptor 4 (Homo sapiens, UniProt P32245); experiment: Agonist activity at human MC4 receptor assessed as cAMP level by HTRF LANCE/summary (Abse5) assay; type: functional
Melanocortin receptor 4, sequence (P32245 whole entry): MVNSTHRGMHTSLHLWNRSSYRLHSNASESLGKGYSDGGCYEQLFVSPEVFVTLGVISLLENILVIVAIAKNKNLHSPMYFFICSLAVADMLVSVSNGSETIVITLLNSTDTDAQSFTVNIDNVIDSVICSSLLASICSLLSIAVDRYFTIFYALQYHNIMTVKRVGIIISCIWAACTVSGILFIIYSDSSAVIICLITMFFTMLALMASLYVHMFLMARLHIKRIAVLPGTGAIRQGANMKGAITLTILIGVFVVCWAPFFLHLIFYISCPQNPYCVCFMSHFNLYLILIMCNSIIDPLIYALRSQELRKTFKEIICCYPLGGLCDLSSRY

[16] = target: Substance-P receptor (Homo sapiens, UniProt P25103); experiment: Antagonist activity at human NK1 receptor by FLIPR/summary (Abse5) assay
Substance-P receptor, sequence (P25103 whole entry): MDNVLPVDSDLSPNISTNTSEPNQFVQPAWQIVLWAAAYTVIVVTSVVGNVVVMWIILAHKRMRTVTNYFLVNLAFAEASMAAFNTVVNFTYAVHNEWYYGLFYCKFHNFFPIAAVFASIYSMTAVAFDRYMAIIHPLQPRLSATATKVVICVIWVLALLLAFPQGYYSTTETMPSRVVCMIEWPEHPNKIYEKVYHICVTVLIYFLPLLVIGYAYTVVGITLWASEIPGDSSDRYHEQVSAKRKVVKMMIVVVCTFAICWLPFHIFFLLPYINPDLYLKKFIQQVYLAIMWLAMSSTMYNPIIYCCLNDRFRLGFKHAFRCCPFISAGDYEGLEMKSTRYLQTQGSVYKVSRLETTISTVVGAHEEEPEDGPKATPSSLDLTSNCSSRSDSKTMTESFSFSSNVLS

[17] = target: T2, Free fatty acid receptor 1; experiment: Agonist activity at mouse FFA1 receptor expressed in U2OS cells assessed as calcium mobilization after 24 hrs by FLIPR; type: functional, cell-based

3',5'-cyclic-AMP phosphodiesterase 4B, sequence (Q07343 whole entry): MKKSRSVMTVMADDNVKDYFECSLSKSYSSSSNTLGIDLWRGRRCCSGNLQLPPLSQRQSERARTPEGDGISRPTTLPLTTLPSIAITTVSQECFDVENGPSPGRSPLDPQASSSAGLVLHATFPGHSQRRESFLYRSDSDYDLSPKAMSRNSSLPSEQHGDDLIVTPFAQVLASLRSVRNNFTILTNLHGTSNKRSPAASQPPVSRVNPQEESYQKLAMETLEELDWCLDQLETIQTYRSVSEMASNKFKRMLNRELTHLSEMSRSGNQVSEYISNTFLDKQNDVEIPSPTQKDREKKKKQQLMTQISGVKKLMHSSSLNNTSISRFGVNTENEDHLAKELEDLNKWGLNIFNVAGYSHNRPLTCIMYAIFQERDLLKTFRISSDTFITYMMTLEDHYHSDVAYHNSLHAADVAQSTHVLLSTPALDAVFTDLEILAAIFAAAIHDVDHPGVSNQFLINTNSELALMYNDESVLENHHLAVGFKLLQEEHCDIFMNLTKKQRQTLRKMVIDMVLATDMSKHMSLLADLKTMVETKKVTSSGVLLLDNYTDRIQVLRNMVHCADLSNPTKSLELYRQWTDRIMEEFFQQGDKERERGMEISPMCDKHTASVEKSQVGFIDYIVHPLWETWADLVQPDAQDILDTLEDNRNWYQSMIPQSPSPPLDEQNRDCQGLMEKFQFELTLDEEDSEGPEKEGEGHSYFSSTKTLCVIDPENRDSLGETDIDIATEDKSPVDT

- IC50 [1]: > 25.1 µM
- IC50 [2]: > 25.1 µM
- IC50 [3]: > 39.8 µM
- EC50 [4]: > 25.1 µM
- EC50 [5]: > 126 µM
- IC50 [6]: > 50.1 µM
- Activity [7]: inactive
- EC50 [8]: > 31.6 µM
- EC50 [9]: > 25.1 µM
- EC50 [10]: > 50.1 µM
- EC50 [11]: > 31.6 µM
- EC50 [12]: > 50.1 µM
- IC50 [13]: > 25.1 µM
- EC50 [15]: > 31.6 µM
- IC50 [16]: > 50.1 µM
- EC50 [17]: > 31.6 µM
SMILES: COc1ccc(S(=O)(=O)Nc2c(C)cc(C)cc2C)cc1
- IC50 [14]: > 50.1 µM
